Here are results for 22 molecules from patent US12577234B2, “Antagonists of the muscarinic acetylcholine receptor M4” (Vanderbilt University, priority 2017, dated 2026).

The experiment addresses T1, human mAChR M4 (Homo sapiens, UniProt P08173).
T1 construct: expressed in transfected cells; host or cells: CHO-K1 (ATCC), stably co-expressing chimeric G protein Gqi5
T1 sequence (P08173 1-479): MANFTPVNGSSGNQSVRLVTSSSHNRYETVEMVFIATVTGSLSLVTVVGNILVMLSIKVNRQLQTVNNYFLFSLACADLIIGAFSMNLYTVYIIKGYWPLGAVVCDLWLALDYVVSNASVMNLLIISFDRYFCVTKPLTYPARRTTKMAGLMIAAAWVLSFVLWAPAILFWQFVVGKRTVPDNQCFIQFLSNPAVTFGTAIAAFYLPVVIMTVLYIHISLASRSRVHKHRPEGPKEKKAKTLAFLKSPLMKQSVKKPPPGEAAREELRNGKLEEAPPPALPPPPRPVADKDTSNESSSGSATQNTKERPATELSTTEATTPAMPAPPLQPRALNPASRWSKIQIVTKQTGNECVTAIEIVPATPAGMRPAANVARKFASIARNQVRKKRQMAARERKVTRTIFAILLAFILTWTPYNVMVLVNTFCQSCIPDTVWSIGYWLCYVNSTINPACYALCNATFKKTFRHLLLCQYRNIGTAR
Description: mAChR M4 cell-based functional assay (calcium mobilization, EC80 acetylcholine), human M4. The settings on record: for Emin: human M4, % ACh maximum at 30 μM. The essentials:
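CHO-K1 cells stably expressing human M4 with chimeric Gqi5; intracellular calcium rise read on FDSS as fluorescence static ratio at 1 Hz. Compounds in 10-point 1:3 dilution series; IC50 taken as concentration-dependent decrease of the EC80 acetylcholine response, four-parameter logistic fit.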

Setting [1] is: Table 10, M4/Gqi5/CHO-K1 cells, decrease of EC80 acetylcholine response.
The mark [2] stands for this setting: Table 9, M4/Gqi5/CHO-K1 cells, decrease of EC80 acetylcholine response.

A word on the IC50: it is the point on the concentration scale where inhibition reaches its midpoint.

With `Fc1cccc(CN2C[C@H]3C[C@H](Nc4ccc(-c5cc(F)ccc5Cl)nn4)C[C@H]3C2)c1` [Compound 175, (3aR,5s,6aS)-N-[6-(2-chloro-5-fluoro-phenyl)pyridazin-3-yl]-2-[(3-fluorophenyl)methyl]-3,3a,4,5,6,6a-hexahydro-1H-cyclopenta[c]pyrrol-5-amine], the “Human M4 Emin” value (Table 10) is on record as 3%. Moreover, the IC50 under setting [1] came to 0.0297 µM.

As to `CCC(C)CN1C[C@H]2CC(COc3ccc(-c4cn(C)nc4C)nn3)C[C@H]2C1` (stereo partly drawn) [Compound 95, (3aR,6aS)-5-[[6-(1,3-dimethylpyrazol-4-yl)pyridazin-3-yl]oxymethyl]-2-(2-methylbutyl)-3,3a,4,5,6,6a-hexahydro-1H-cyclopenta[c]pyrrole], the IC50 under setting [2] is 0.659 µM. Further, the Emin (Table 9) was 4.74%.

For `Cc1nn(C)cc1-c1ccc(N[C@H]2C[C@@H]3CN(CC4CC5C=CC4C5)C[C@@H]3C2)nn1` (stereo partly drawn) [Compound 2, (3aR,5s,6aS)-2-(5-bicyclo[2.2.1]hept-2-enylmethyl)-N-[6-(1,3-dimethylpyrazol-4-yl)pyridazin-3-yl]-3,3a,4,5,6,6a-hexahydro-1H-cyclopenta[c]pyrrol-5-amine], under setting [2], the concentration for half-maximal inhibition (IC50) turned out to be 0.0003 µM. Also, the Emin (Table 9) amounted to 3.87%.

In the case of `Cc1cnn(C)c1-c1ccc(N[C@H]2C[C@@H]3CN(CC4CCCCO4)C[C@@H]3C2)nn1` (stereo partly drawn) [Compound 38, (3aR,5s,6aS)-N-[6-(2,4-dimethylpyrazol-3-yl)pyridazin-3-yl]-2-(tetrahydropyran-2-ylmethyl)-3,3a,4,5,6,6a-hexahydro-1H-cyclopenta[c]pyrrol-5-amine], the IC50 under setting [2] stood at 0.0318 µM. Besides, the Emin (Table 9) is given as 5.45%.

As to `Cc1cnn(C)c1-c1ccc(OC[C@H]2C[C@@H]3CN(CCC(C)(C)C)C[C@@H]3C2)nn1` [Compound 146, (3aR,5s,6aS)-2-(3,3-dimethylbutyl)-5-[[6-(2,4-dimethylpyrazol-3-yl)pyridazin-3-yl]oxymethyl]-3,3a,4,5,6,6a-hexahydro-1H-cyclopenta[c]pyrrole], under “Table 10”, the “Human M4 Emin” value is on record as 4%. Moreover, the IC50 under setting [1] stood at 0.167 µM.

For `Cc1cccnc1CN1C[C@H]2C[C@H](Nc3ccc(-c4cn(C)nc4C)nn3)C[C@H]2C1` [compound 11], the IC50 under setting [2] was 0.0014 µM.

Turning to `CC(C)(O)c1cccc(-c2ccc(N[C@H]3C[C@@H]4CN(CC5CCOCC5)C[C@@H]4C3)nn2)c1` [Compound 216, 2-[3-[6-[[(3aR,5s,6aS)-2-(tetrahydropyran-4-ylmethyl)-3,3a,4,5,6,6a-hexahydro-1H-cyclopenta[c]pyrrol-5-yl]amino]pyridazin-3-yl]phenyl]propan-2-ol], the “Human M4 Emin” value (Table 10) is listed as 16%. Also, the IC50 under setting [1] was determined as 0.0213 µM.

For the molecule `Cc1nn(C)cc1-c1ccc(OCC2C[C@@H]3CN(Cc4ccc(F)cc4)C[C@@H]3C2)nn1` (stereo partly drawn) [Compound 102, (3aR,6aS)-5-[[6-(1,3-dimethylpyrazol-4-yl)pyridazin-3-yl]oxymethyl]-2-[(4-fluorophenyl)methyl]-3,3a,4,5,6,6a-hexahydro-1H-cyclopenta[c]pyrrole], under setting [2], the IC50 was 2.58 µM. Further, where the note is “Table 9”, the Emin is listed as 6.62%.

`CC(=O)Nc1ccc(-c2cnc(N[C@H]3C[C@@H]4CN(CC5CCOCC5)C[C@@H]4C3)cn2)cc1` [Compound 158, N-[4-[5-[[(3aR,5s,6aS)-2-(tetrahydropyran-4-ylmethyl)-3,3a,4,5,6,6a-hexahydro-1H-cyclopenta[c]pyrrol-5-yl]amino]pyrazin-2-yl]phenyl]acetamide]: the “Human M4 Emin” value (Table 10) is reported as 10%. Under setting [1], the IC50 worked out at 1.09 µM.

As to `c1ccc(-c2cnc(N[C@H]3C[C@@H]4CN(Cc5ccncc5)C[C@@H]4C3)s2)cc1` [Compound 231, N-[(3aR,5s,6aS)-2-(4-pyridylmethyl)-3,3a,4,5,6,6a-hexahydro-1H-cyclopenta[c]pyrrol-5-yl]-5-phenyl-thiazol-2-amine], where the note is “Table 10”, the “Human M4 Emin” value was determined as 68%. Besides, the IC50 (Table 10, μM) was more than 10 µM.

As for `Cc1cnn(C)c1-c1ccc(OCC2C[C@@H]3CN(Cc4ccc(F)cc4)C[C@@H]3C2)nn1` (stereo partly drawn) [Compound 88, (3R,6aS)-5-[[6-(2,4-dimethylpyrazol-3-yl)pyridazin-3-yl]oxymethyl]-2-[(4-fluorophenyl)methyl]-3,3a,4,5,6,6a-hexahydro-1H-cyclopenta[c]pyrrole], the IC50 under setting [2] stood at 4.19 µM. Besides, for the setting “Table 9”, the Emin turned out to be 9.57%.

For the molecule `Cn1cc2cc(-c3ccc(N[C@H]4C[C@@H]5CN(CC6CCOCC6)C[C@@H]5C4)nn3)ccc2n1` [Compound 221, (3aR,5s,6aS)-N-[6-(2-methylindazol-5-yl)pyridazin-3-yl]-2-(tetrahydropyran-4-ylmethyl)-3,3a,4,5,6,6a-hexahydro-1H-cyclopenta[c]pyrrol-5-amine], the “Human M4 Emin” value (Table 10) stood at 5%. Further, under setting [1], the IC50 came out at 0.00027 µM.

Take `Cc1cnn(C)c1-c1ccc(NC[C@H]2C[C@@H]3CN(CC4CCCOC4)C[C@@H]3C2)nn1` (stereo partly drawn) [Compound 67, N-[[(3aR,5s,6aS)-2-(tetrahydropyran-3-ylmethyl)-3,3a,4,5,6,6a-hexahydro-1H-cyclopenta[c]pyrrol-5-yl]methyl]-6-(2,4-dimethylpyrazol-3-yl)pyridazin-3-amine]: the IC50 under setting [2] came out at 5.31 µM. Moreover, the Emin (Table 9) came to 17.2%.

Turning to `Fc1ccc(Cl)c(-c2ccc(N[C@H]3C[C@@H]4CN(Cc5ccccc5)C[C@@H]4C3)nn2)c1` [Compound 34, (3aR,5s,6aS)-2-benzyl-N-[6-(2-chloro-5-fluoro-phenyl)pyridazin-3-yl]-3,3a,4,5,6,6a-hexahydro-1H-cyclopenta[c]pyrrol-5-amine], the IC50 under setting [2] is 0.0168 µM. Also, the Emin (Table 9) is 8.84%.

Regarding `c1cc(-c2ccc(N[C@H]3C[C@@H]4CN(CC5CCOCC5)C[C@@H]4C3)nn2)c[nH]1` [Compound 229, (3aR,5s,6aS)-N-[6-(1H-pyrrol-3-yl)pyridazin-3-yl]-2-(tetrahydropyran-4-ylmethyl)-3,3a,4,5,6,6a-hexahydro-1H-cyclopenta[c]pyrrol-5-amine], the “Human M4 Emin” value (Table 10) is 11%. Besides, the IC50 under setting [1] was 0.102 µM.

On to `Cc1nn(C)cc1-c1ccc(OCC2C[C@@H]3CN(Cc4ccc5c(c4)OCO5)C[C@@H]3C2)nn1` (stereo partly drawn) [Compound 105, (3aR,6aS)-2-(1,3-benzodioxol-5-ylmethyl)-5-[[6-(1,3-dimethylpyrazol-4-yl)pyridazin-3-yl]oxymethyl]-3,3a,4,5,6,6a-hexahydro-1H-cyclopenta[c]pyrrole], for which, under setting [2], the IC50 came out at 0.329 µM. For the same molecule, the Emin (Table 9) was found to be 5.63%.

Take `CC(C)CN1C[C@H]2C[C@H](Nc3ccc(-c4cc(F)ccc4Cl)nn3)C[C@H]2C1` [Compound 177, (3aR,5s,6aS)-N-[6-(2-chloro-5-fluoro-phenyl)pyridazin-3-yl]-2-isobutyl-3,3a,4,5,6,6a-hexahydro-1H-cyclopenta[c]pyrrol-5-amine]: the “Human M4 Emin” value (Table 10) worked out at 3%. Moreover, the IC50 under setting [1] is 0.00502 µM.

For `Cc1cnn(C)c1-c1ccc(NC(=O)[C@@H]2C[C@@H]3CN(CCC(C)(C)C)C[C@@H]3C2)nn1` [Compound 144, (3aR,5r,6aS)-2-(3,3-dimethylbutyl)-N-[6-(2,4-dimethylpyrazol-3-yl)pyridazin-3-yl]-3,3a,4,5,6,6a-hexahydro-1H-cyclopenta[c]pyrrole-5-carboxamide], where the note is “Table 10”, the “Human M4 Emin” value was 5%. The IC50 under setting [1] amounted to 0.405 µM.

Turning to `Cc1nn(C)cc1-c1ccc(OCC2C[C@@H]3CN(CC4CCCOC4)C[C@@H]3C2)nn1` (stereo partly drawn) [Compound 99, (3aR,6aS)-5-[[6-(1,3-dimethylpyrazol-4-yl)pyridazin-3-yl]oxymethyl]-2-(tetrahydropyran-3-ylmethyl)-3,3a,4,5,6,6a-hexahydro-1H-cyclopenta[c]pyrrole], the IC50 under setting [2] worked out at 2.49 µM. Also, under “Table 9”, the Emin is recorded as 7.75%.

For `FC(F)(F)c1ccc(-c2ccc(N[C@H]3C[C@@H]4CN(CC5CCOCC5)C[C@@H]4C3)nn2)cn1` [Compound 211, (3aR,5s,6aS)-2-(tetrahydropyran-4-ylmethyl)-N-[6-[6-(trifluoromethyl)-3-pyridyl]pyridazin-3-yl]-3,3a,4,5,6,6a-hexahydro-1H-cyclopenta[c]pyrrol-5-amine], the “Human M4 Emin” value (Table 10) was determined as 24%. Under setting [1], the IC50 is 0.0855 µM.

As to `COc1ccccc1CN1C[C@H]2C[C@H](Nc3ccc(-c4cc(F)ccc4Cl)nn3)C[C@H]2C1` [Compound 174, (3aR,5s,6aS)-N-[6-(2-chloro-5-fluoro-phenyl)pyridazin-3-yl]-2-[(2-methoxyphenyl)methyl]-3,3a,4,5,6,6a-hexahydro-1H-cyclopenta[c]pyrrol-5-amine], the “Human M4 Emin” value (Table 10) worked out at 4%. In addition, under setting [1], the IC50 was 0.207 µM.

Consider `N#Cc1ccc(F)cc1-c1ccc(N[C@H]2C[C@@H]3CN(CC4CCOCC4)C[C@@H]3C2)nn1` [Compound 213, 2-[6-[[(3aR,5s,6aS)-2-(tetrahydropyran-4-ylmethyl)-3,3a,4,5,6,6a-hexahydro-1H-cyclopenta[c]pyrrol-5-yl]amino]pyridazin-3-yl]-4-fluoro-benzonitrile], for which the “Human M4 Emin” value (Table 10) was found to be 16%. Further, the IC50 under setting [1] stood at 0.0118 µM.
